For one series, the target named is T1, VAP-1 (Homo sapiens, UniProt Q16853).
T1 sequence (Q16853 29-763 limits assumed): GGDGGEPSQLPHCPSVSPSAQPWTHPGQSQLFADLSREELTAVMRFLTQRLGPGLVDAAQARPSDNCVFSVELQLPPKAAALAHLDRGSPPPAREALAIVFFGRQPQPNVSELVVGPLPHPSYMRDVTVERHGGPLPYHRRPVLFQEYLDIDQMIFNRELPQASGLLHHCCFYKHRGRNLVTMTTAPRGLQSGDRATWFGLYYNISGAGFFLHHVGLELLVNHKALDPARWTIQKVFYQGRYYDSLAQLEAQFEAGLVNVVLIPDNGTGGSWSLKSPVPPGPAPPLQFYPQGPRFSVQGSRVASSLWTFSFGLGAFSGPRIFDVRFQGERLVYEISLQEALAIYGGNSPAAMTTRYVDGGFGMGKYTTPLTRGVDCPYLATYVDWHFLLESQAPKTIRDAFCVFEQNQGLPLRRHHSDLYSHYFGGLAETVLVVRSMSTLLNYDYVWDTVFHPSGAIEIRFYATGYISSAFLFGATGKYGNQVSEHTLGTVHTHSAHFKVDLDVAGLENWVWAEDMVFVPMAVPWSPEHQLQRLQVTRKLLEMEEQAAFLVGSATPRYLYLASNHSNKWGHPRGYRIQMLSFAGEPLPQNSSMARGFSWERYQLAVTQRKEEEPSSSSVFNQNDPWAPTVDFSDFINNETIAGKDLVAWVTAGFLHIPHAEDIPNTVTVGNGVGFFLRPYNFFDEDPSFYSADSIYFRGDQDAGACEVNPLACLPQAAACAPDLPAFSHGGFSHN
Nature of the series: in vitro. The following applies: both, plasma, pH 7.4.

The test system of a further series is retina. Nature of the series: Light-induced retinal damage (LIRD). In kind it is in vivo, BALB/c mice. The following applies: 2 mg/kg, 10,000 lux 3 hr, 5 days post-LIRD. As for the experimental part:
FIG. 5. LIRD caused the degeneration in the retina and RPE, which was rescued by inhibitor at the dose of 2 mg/kg in BALB/c mice. (FIG. 5A) Representative histological analysis for the retinas of RPE65-61 injected mice 5 days post-LIRD. Retinal cross-sections of No LIRD Control, LIRD+Vehicle, and LIRD+inhibitor RPE65-61 from three groups were stained with H&E for morphological comparison, 40× magnification. (FIG. 5B) Representative OCT images of mice treated with RPE65-61. […] RPE: retinal pigment epithelium; IS: inner segment; OS: outer segment; ONL: outer nuclear layer; OPL: outer plexiform layer; INL: inner nuclear layer; IPL: inner plexiform layer; RNFL: retinal nerve fiber layer. Bars represent mean±SEM. with n=8 per group. Student's t-test. *P<0.05, **<0.01 and ***<0.001, ****<0.0001.
FIG. 6. […] (FIGS. 6A-B) Shown are representative images of the Western blot detection of rhodopsin protein expression and the correlating quantifications. (FIGS. 6C-D) Cone density was evaluated by immunofluorescence, representative confocal images of immunofluorescence labeling with Peanut Agglutinin Lectin (PNA) and the correlating quantifications, 40× magnification. […]
Mice were dark-adapted overnight with food and water ad libitum. […] The mice were returned to regular housing for 5 days and then the retinal damage was assessed. […]

Experimental for VAP-1: Studies were carried out in mixed-gender human plasma (Lot #HMN330460) and male Beagle dog plasma (Lot #BGL118112), obtained from BioIVT and collected on sodium heparin. Plasma was adjusted to pH 7.4 prior to initiating the experiments. DMSO stocks were first prepared for the test articles. Aliquots of the DMSO solutions were dosed into 1 mL of plasma, which had been pre-warmed to 37° C., at a final test article concentration of 1 μM. The vials were kept in a benchtop Thermomixer® for the duration of the experiment. Aliquots (100 μL) were taken at each time point (0, 15, 30, 60, and 120 minutes) and added to 96-well plates, which had been pre-filled with 300 μL of acetonitrile (ACN). Samples were stored at 4° C. until the end of the experiment. After the final time point was sampled, the plate was mixed and then centrifuged at 3,000 rpm for 10 minutes. Aliquots of the supernatant were removed, diluted 1:1 into distilled water, and analyzed by LC-MS/MS. The peak area response ratio to internal standard (PARR) was compared to the PARR at time 0 to determine the percent of test article remaining at each time point. Half-lives were calculated using GraphPad software, fitting to a single-phase exponential decay equation.

As a reminder, the half-life is the time needed for the level to fall by half in the phase considered. A higher half-life goes with slow decline. For the compound `N=S(=O)(CCN)c1cccc(OCC2CCCCC2)c1` (racemic) [RPE65-61, (±)-(2-aminoethyl) (3-(cyclohexylmethoxy)phenyl) (imino)-λ^6-sulfanone], at VAP-1, the half-life at 1 μM was above 2 h. Also, in the series with retina, the “effect against LIRD (histology, ERG)” value is “protective effect”.

Source of the values: patent publication US20240245647A1, “ISOMEROHYDROLASE INHIBITOR FOR TREATMENT OF ATROPHIC FORM OF AGE-RELATED MACULAR DEGENERATION AND STARGARDT DISEASE” (The Trustees of Columbia University in the City of New York, priority 2021, published 2024).
